Columns and labels:
Assay in all cases: Cellular proliferation and viability, CRC cell line panel
Format in all cases: cell-based, human
T84 cells = settings: KRAS G13D, BRAF WT, APC del, CTNNB1 WT, 3 days post-treatment
Description: (§1) (A) IC50 values (μM) for effects on cellular proliferation and viability with the TAK1 kinase inhibitor 5z-7-oxozeaenol in a panel of colon cancer cell lines that have been genotyped as KRAS mutant (KRAS-independent—circles or KRAS-dependent—squares), BRAF mutant (triangles) or wild-type for both KRAS and BRAF (OTHER—diamonds). Effects on growth were measured 3 days post-treatment. Data are represented as the mean of 3 independent experiments and error bars indicate the median±interquartile range. *denotes p<0.00001; n.s.—not significant.
(§2) To further validate TAK1 as a candidate therapeutic target in this context, a potent and selective TAK1 kinase inhibitor, 5Z-7-oxozeaenol (Rawlins et al., 1999), was used. Sensitivity to 5Z-7-oxozeaenol was tested in a panel of 47 colon cancer cell lines with various genotypes (FIGS. 3A and 9A). KRAS and BRAF genotypes were either procured from the Sanger Institute's Catalog of Somatic Mutations (COSMIC) or determined by targeted resequencing (Table 2). KRAS mutation status was determined as described above; the same methods were used to determine the mutation states of BRAF. BRAF exon15 was sequenced with TCATAATGCTTGCTCTGATAGGA (forward; SEQ ID NO:3) and GGCCAAAAATTTAATCAGTGG (reverse; SEQ ID NO:4).

CL-11 cells = settings: KRAS V14I (KRAS-dependent), BRAF WT, CTNNB1 WT, 3 days post-treatment
Description: as §1, §2

SW1417 cells = settings: KRAS WT, BRAF V600E, APC del, CTNNB1 WT, 3 days post-treatment
Description: as §1, §2

Hs 257.T cells = settings: KRAS G13D, BRAF WT, 3 days post-treatment
Description: as §1, §2

WiDR cells = settings: KRAS WT, BRAF V600E, APC del, CTNNB1 WT, 3 days post-treatment
Description: as §1, §2

HCT-116 cells = settings: KRAS G13D, BRAF WT, APC WT, CTNNB1 S45del, 3 days post-treatment
Description: as §1, §2

H630 cells = settings: KRAS WT, BRAF WT, APC del, CTNNB1 WT, 3 days post-treatment
Description: as §1, §2

CCK-81 cells = settings: KRAS WT, BRAF WT, 3 days post-treatment
Description: as §1, §2

SW1463 cells = settings: KRAS G12C, BRAF WT, APC del, CTNNB1 WT, 3 days post-treatment
Description: as §1, §2

SW948 cells = settings: KRAS Q61L, BRAF WT, APC del, CTNNB1 WT, 3 days post-treatment
Description: as §1, §2

CL-40 cells = settings: KRAS G12D (KRAS-dependent), BRAF WT, 3 days post-treatment
Description: as §1, §2

C2BBe1 cells = settings: KRAS WT, BRAF WT, APC del, CTNNB1 WT, 3 days post-treatment
Description: as §1, §2

C170 cells = settings: KRAS G13D (KRAS-dependent), BRAF WT, CTNNB1 WT, 3 days post-treatment
Description: as §1, §2

RCM-1 cells = settings: KRAS G12V (KRAS-dependent), BRAF WT, APC del, CTNNB1 WT, 3 days post-treatment
Description: as §1, §2

HT55 cells = settings: KRAS WT, BRAF WT, APC del, CTNNB1 WT, 3 days post-treatment
Description: as §1, §2

Hs 1.Int cells = settings: KRAS WT, BRAF WT, 3 days post-treatment
Description: as §1, §2

SW48 cells = settings: KRAS WT, BRAF WT, APC WT, CTNNB1 S33Y, 3 days post-treatment
Description: as §1, §2

HT29 cells = settings: KRAS WT, BRAF V600E, APC del, CTNNB1 WT, 3 days post-treatment
Description: as §1, §2

Caco-2 cells = settings: KRAS WT, BRAF V600E, CTNNB1 WT, 3 days post-treatment
Description: as §1, §2

HCT-8 cells = settings: KRAS G13D, BRAF WT, APC del, CTNNB1 WT, 3 days post-treatment
Description: as §1, §2

HRT-18 cells = settings: KRAS G13D, BRAF WT, APC del, CTNNB1 WT, 3 days post-treatment
Description: as §1, §2

DLD-1 cells = settings: KRAS G13D, BRAF WT, APC del, CTNNB1 WT, 3 days post-treatment
Description: as §1, §2

RKO cells = settings: KRAS WT, BRAF V600E, APC del, CTNNB1 WT, 3 days post-treatment
Description: as §1, §2

Gp5D cells = settings: KRAS G12D (KRAS-dependent), BRAF WT, APC del, CTNNB1 WT, 3 days post-treatment
Description: as §1, §2

HCC56 cells = settings: KRAS G12V, BRAF WT, 3 days post-treatment
Description: as §1, §2

COLO-206F cells = settings: KRAS WT, BRAF V600E, 3 days post-treatment
Description: as §1, §2

SW837 cells = settings: KRAS G12C, BRAF WT, APC del, CTNNB1 WT, 3 days post-treatment
Description: as §1, §2

SW1116 cells = settings: KRAS G12A (KRAS-dependent), BRAF WT, APC del, CTNNB1 WT, 3 days post-treatment
Description: as §1, §2

COLO-678 cells = settings: KRAS G12D (KRAS-dependent), BRAF WT, APC del, CTNNB1 WT, 3 days post-treatment
Description: as §1, §2

CL-34 cells = settings: KRAS WT, BRAF V600E, 3 days post-treatment
Description: as §1, §2

`COc1cc(O)c2c(c1)/C=C/C[C@H](O)[C@H](O)C(=O)/C=C\C[C@H](C)OC2=O` [5Z-7-oxozeaenol] gave an IC50 (T84 cells) of 2810 nM, an IC50 (CL-11 cells) of 1160 nM and an IC50 (SW1417 cells) of 1240 nM. For the same molecule, the IC50 (Hs 257.T cells) was 3200 nM, the IC50 (WiDR cells) was 2480 nM and the IC50 (HCT-116 cells) was 2380 nM. For the same molecule, the IC50 (H630 cells) was 4480 nM, the IC50 (CCK-81 cells) was 412 nM and the IC50 (SW1463 cells) was 2420 nM. It also gave an IC50 (SW948 cells) of 2320 nM, an IC50 (CL-40 cells) of 482 nM and an IC50 (C2BBe1 cells) of 9320 nM. For the same molecule, the IC50 (C170 cells) was 1070 nM, the IC50 (RCM-1 cells) was 277 nM and the IC50 (HT55 cells) was 1540 nM. For the same molecule, the IC50 (Hs 1.Int cells) was 5640 nM, the IC50 (SW48 cells) was 1940 nM and the IC50 (HT29 cells) was 7880 nM. For the same molecule, the IC50 (Caco-2 cells) was 1440 nM, the IC50 (HCT-8 cells) was 47300 nM and the IC50 (HRT-18 cells) was 60000 nM. It also gave an IC50 (DLD-1 cells) of 8230 nM, an IC50 (RKO cells) of 1100 nM and an IC50 (Gp5D cells) of 1770 nM. It also gave an IC50 (HCC56 cells) of 2340 nM, an IC50 (COLO-206F cells) of 509 nM and an IC50 (SW837 cells) of 5950 nM. For the same molecule, the IC50 (SW1116 cells) was 122 nM, the IC50 (COLO-678 cells) was 774 nM and the IC50 (CL-34 cells) was 489 nM.

— patent US20140243403A1, “TREATING COLORECTAL, PANCREATIC, AND LUNG CANCER” (The General Hospital Corporation, priority 2011, published 2014)
